Source: patent US11767310B2, “Nicotinamide RIPK1 inhibitors” (AbbVie Inc., priority 2021, dated 2023)
Where two headings read alike, the source gives them in different places.

Assays:
Test in all cases: Kinase binding screen
Details in all cases: read-out: Percent Control at 100 nM Compound Concentration
INSRR = INSRR (Homo sapiens (Human), UniProt P14616)
EPHA4 = EPHA4 (Homo sapiens (Human), UniProt P54764)
PAK1 = PAK1 (Homo sapiens (Human), UniProt Q13153)
FLT4 = FLT4 (Homo sapiens (Human), UniProt P35916)
RET(V804L) = RET(V804L) (Homo sapiens (Human), UniProt P07949, V804L)
NDR1 = NDR1 (Homo sapiens (Human), UniProt Q15208)
Sequence of NDR1 (Q15208 whole entry): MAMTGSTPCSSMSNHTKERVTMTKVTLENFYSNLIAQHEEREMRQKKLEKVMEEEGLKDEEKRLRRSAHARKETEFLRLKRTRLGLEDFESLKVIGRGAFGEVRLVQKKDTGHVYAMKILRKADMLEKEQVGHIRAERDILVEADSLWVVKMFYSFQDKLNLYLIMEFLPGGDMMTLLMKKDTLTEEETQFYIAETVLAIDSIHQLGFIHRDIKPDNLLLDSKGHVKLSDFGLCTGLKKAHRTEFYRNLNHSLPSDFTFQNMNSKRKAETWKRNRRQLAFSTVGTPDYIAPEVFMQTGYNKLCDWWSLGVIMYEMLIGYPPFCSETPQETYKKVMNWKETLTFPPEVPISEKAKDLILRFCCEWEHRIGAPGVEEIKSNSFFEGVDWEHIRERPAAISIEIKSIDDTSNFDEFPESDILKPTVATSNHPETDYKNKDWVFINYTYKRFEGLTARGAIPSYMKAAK

FGFR1 = FGFR1 (Homo sapiens (Human), UniProt P11362)
PRKD1 = PRKD1 (Homo sapiens (Human), UniProt Q15139)
FGFR2 = FGFR2 (Homo sapiens (Human), UniProt P21802)
Sequence of FGFR2 (P21802 22-821): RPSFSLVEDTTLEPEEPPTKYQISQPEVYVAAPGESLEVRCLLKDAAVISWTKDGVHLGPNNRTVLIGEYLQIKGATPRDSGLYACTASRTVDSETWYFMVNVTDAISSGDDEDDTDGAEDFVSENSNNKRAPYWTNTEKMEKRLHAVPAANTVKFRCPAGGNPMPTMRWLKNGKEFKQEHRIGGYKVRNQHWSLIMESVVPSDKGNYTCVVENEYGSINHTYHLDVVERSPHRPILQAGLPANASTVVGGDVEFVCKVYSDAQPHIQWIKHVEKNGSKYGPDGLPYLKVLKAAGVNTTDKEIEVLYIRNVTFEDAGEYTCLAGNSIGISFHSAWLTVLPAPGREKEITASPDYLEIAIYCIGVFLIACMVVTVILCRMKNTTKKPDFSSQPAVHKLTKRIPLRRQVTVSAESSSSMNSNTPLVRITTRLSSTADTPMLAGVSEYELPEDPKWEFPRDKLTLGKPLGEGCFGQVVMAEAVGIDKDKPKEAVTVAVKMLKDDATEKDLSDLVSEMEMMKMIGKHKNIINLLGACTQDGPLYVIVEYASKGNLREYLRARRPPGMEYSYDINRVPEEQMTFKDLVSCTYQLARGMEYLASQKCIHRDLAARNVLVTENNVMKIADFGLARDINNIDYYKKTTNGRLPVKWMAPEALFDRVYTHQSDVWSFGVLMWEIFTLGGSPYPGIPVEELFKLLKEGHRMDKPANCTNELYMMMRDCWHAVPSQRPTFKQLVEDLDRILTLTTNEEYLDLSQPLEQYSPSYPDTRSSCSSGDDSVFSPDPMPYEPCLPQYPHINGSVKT

EPHA7 = EPHA7 (Homo sapiens (Human), UniProt Q15375)
Sequence of EPHA7 (Q15375 28-998): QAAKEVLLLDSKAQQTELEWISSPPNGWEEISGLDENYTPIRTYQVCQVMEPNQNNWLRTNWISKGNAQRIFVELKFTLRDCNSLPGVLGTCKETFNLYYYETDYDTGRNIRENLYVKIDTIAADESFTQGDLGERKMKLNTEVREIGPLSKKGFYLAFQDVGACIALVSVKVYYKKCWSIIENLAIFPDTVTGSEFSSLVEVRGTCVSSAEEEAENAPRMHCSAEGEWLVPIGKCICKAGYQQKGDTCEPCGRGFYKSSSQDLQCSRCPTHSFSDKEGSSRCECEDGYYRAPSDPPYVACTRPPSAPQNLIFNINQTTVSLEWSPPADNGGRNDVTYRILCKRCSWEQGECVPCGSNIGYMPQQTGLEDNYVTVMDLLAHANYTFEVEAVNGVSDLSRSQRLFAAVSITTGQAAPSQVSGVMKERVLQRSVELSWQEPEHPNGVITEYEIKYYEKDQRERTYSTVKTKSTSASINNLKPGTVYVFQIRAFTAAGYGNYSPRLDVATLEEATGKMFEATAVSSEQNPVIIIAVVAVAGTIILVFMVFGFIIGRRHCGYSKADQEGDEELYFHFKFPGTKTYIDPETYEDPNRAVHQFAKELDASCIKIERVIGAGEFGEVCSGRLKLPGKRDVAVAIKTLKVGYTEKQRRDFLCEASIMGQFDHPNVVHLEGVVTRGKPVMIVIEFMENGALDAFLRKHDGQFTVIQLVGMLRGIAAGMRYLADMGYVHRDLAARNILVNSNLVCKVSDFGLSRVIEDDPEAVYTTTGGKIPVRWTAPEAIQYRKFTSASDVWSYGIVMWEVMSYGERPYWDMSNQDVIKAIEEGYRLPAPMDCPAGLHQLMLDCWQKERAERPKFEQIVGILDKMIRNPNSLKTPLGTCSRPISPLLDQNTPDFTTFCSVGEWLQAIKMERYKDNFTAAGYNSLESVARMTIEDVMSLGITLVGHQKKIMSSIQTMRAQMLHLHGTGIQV

NIM1 = NIM1 (Homo sapiens (Human), UniProt Q8IY84)
Sequence of NIM1 (Q8IY84 whole entry): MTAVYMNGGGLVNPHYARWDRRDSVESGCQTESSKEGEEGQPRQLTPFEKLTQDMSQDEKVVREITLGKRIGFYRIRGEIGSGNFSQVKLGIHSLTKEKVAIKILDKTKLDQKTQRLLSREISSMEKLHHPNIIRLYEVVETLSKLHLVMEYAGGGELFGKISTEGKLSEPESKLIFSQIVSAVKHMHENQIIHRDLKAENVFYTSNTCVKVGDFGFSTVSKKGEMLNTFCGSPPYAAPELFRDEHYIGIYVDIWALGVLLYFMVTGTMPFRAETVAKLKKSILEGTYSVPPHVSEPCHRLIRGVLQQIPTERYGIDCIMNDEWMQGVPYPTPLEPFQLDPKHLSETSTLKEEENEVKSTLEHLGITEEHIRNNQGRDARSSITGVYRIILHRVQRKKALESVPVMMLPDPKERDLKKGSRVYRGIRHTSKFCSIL

TNK1 = TNK1 (Homo sapiens (Human), UniProt Q13470)
TGFBR2 = TGFBR2 (Homo sapiens (Human), UniProt P37173)
PLK1 = PLK1 (Homo sapiens (Human), UniProt P53350)
FES = FES (Homo sapiens (Human), UniProt P07332)
Sequence of FES (P07332 whole entry): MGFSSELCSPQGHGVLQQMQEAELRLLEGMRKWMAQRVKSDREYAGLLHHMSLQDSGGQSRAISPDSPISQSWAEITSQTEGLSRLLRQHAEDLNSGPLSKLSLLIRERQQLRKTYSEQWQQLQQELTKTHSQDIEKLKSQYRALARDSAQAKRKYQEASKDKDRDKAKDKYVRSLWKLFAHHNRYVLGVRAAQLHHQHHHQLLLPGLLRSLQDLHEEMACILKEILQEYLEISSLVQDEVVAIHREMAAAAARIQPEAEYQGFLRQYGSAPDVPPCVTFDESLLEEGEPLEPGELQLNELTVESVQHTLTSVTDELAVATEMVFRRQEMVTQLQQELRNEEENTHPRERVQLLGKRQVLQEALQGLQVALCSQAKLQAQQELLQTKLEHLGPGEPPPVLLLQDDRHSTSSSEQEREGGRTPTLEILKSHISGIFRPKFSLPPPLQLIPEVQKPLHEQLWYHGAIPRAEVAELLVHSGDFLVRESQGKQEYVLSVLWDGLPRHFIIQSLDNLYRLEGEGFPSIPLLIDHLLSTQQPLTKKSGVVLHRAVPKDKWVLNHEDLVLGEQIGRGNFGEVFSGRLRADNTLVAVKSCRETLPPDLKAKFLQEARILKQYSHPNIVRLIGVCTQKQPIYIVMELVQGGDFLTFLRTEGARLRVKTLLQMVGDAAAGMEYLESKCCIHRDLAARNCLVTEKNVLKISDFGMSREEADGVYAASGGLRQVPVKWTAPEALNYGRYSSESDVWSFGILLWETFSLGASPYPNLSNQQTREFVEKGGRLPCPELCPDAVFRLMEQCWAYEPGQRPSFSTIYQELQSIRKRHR

FLT3-autoinhibited = FLT3-autoinhibited (Homo sapiens (Human), UniProt P36888)
MYLK2 = MYLK2 (Homo sapiens (Human), UniProt Q9H1R3)
ADCK3 = ADCK3 (Homo sapiens (Human), UniProt Q8NI60)
TRKA = TRKA (Homo sapiens (Human), UniProt P04629)
Sequence of TRKA (P04629 33-796): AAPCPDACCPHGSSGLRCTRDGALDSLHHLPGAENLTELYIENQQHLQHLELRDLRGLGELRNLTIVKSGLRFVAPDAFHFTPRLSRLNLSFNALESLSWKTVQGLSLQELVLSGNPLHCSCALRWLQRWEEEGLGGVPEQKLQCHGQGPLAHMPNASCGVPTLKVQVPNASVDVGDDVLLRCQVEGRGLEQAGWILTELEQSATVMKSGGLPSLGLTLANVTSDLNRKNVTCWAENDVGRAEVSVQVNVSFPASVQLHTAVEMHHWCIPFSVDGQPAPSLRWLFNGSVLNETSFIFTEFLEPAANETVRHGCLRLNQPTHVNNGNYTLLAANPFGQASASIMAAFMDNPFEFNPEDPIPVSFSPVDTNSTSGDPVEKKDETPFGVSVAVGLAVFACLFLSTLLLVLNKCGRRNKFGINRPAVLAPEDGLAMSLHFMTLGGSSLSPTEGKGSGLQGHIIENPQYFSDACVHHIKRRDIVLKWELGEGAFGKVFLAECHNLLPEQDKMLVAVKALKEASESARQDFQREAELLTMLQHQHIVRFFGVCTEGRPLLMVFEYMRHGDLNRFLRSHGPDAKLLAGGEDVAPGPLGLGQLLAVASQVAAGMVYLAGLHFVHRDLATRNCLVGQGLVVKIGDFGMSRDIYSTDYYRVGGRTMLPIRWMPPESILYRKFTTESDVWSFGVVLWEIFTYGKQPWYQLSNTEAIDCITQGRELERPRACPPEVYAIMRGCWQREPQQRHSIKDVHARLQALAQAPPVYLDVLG

JNK2 = JNK2 (Homo sapiens (Human), UniProt P45984)
RIPK2 = RIPK2 (Homo sapiens (Human), UniProt O43353)
Sequence of RIPK2 (O43353 whole entry): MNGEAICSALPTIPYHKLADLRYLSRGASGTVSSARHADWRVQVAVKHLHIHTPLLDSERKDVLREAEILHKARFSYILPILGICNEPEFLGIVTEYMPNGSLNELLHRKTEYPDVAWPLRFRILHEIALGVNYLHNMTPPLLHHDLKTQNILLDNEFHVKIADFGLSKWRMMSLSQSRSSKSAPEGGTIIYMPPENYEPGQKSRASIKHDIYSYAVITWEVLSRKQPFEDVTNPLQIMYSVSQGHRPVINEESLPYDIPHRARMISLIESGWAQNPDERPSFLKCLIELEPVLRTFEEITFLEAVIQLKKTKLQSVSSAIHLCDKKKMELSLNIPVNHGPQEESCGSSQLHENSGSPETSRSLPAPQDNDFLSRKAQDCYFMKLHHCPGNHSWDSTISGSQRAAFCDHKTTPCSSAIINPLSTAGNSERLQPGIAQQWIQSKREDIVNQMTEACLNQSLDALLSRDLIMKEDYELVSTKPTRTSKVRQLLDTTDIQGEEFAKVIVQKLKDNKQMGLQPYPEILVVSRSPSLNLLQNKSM

GCN2(Kin.Dom.2,S808G) = GCN2(Kin.Dom.2,S808G) (Homo sapiens (Human), UniProt Q9P2K8, S808G)
RIPK1 = RIPK1 (Homo sapiens (Human), UniProt Q13546)
BMPR2 = BMPR2 (Homo sapiens (Human), UniProt Q13873)
IKK-alpha = IKK-alpha (Homo sapiens (Human), UniProt O15111)
ERK3 = ERK3 (Homo sapiens (Human), UniProt Q16659)
PLK3 = PLK3 (Homo sapiens (Human), UniProt Q9H4B4)
MAST1 = MAST1 (Homo sapiens (Human), UniProt Q9Y2H9)
KIT(V559D,T670I) = KIT(V559D,T670I) (Homo sapiens (Human), UniProt P10721, T670I/V559D)

CN(C[C@@H](O)Cc1ccccc1)C(=O)c1cncc(C#Cc2cnn(C(F)F)c2)c1 [Example 2, (S)-5-((1-(difluoromethyl)-1H-pyrazol-4-yl)ethynyl)-N-(2-hydroxy-3-phenylpropyl)-N-methylnicotinamide]
remaining activity at 0.1 µM (INSRR; INSRR): 100%
remaining activity at 0.1 µM (EPHA4; EPHA4): 97%
remaining activity at 0.1 µM (PAK1; PAK1): 100%
remaining activity at 0.1 µM (FLT4; FLT4): 100%
remaining activity at 0.1 µM (RET(V804L); RET(V804L)): 100%
remaining activity at 0.1 µM (NDR1; NDR1): 100%
remaining activity at 0.1 µM (FGFR1; FGFR1): 94%
remaining activity at 0.1 µM (PRKD1; PRKD1): 100%
remaining activity at 0.1 µM (FGFR2; FGFR2): 100%
remaining activity at 0.1 µM (EPHA7; EPHA7): 97%
remaining activity at 0.1 µM (NIM1; NIM1): 89%
remaining activity at 0.1 µM (TNK1; TNK1): 100%
remaining activity at 0.1 µM (TGFBR2; TGFBR2): 100%
remaining activity at 0.1 µM (PLK1; PLK1): 87%
remaining activity at 0.1 µM (FES; FES): 100%
remaining activity at 0.1 µM (FLT3-autoinhibited; FLT3-autoinhibited): 95%
remaining activity at 0.1 µM (MYLK2; MYLK2): 100%
remaining activity at 0.1 µM (ADCK3; ADCK3): 100%
remaining activity at 0.1 µM (TRKA; TRKA): 100%
remaining activity at 0.1 µM (JNK2; JNK2): 91%
remaining activity at 0.1 µM (RIPK2; RIPK2): 100%
remaining activity at 0.1 µM (GCN2(Kin.Dom.2,S808G); GCN2(Kin.Dom.2,S808G)): 95%
remaining activity at 0.1 µM (RIPK1; RIPK1): 26%
remaining activity at 0.1 µM (BMPR2; BMPR2): 100%
remaining activity at 0.1 µM (IKK-alpha; IKK-alpha): 100%
remaining activity at 0.1 µM (ERK3; ERK3): 100%
remaining activity at 0.1 µM (PLK3; PLK3): 97%
remaining activity at 0.1 µM (MAST1; MAST1): 100%
remaining activity at 0.1 µM (KIT(V559D,T670I); KIT(V559D,T670I)): 97%

CN(C[C@H](Cc1ccccc1)OP(=O)(O)O)C(=O)c1cncc(C#Cc2cnn(C(F)F)c2)c1 [Example 19, (S)-1-(5-((1-(difluoromethyl)-1H-pyrazol-4-yl)ethynyl)-N-methylnicotinamido)-3-phenylpropan-2-yl dihydrogen phosphate]
remaining activity at 0.1 µM (INSRR): 100%
remaining activity at 0.1 µM (EPHA4): 96%
remaining activity at 0.1 µM (PAK1): 100%
remaining activity at 0.1 µM (FLT4): 100%
remaining activity at 0.1 µM (RET(V804L)): 100%
remaining activity at 0.1 µM (NDR1): 100%
remaining activity at 0.1 µM (FGFR1): 95%
remaining activity at 0.1 µM (PRKD1): 100%
remaining activity at 0.1 µM (FGFR2): 100%
remaining activity at 0.1 µM (EPHA7): 96%
remaining activity at 0.1 µM (NIM1): 89%
remaining activity at 0.1 µM (TNK1): 100%
remaining activity at 0.1 µM (TGFBR2): 100%
remaining activity at 0.1 µM (PLK1): 87%
remaining activity at 0.1 µM (FES): 100%
remaining activity at 0.1 µM (FLT3-autoinhibited): 96%
remaining activity at 0.1 µM (MYLK2): 96%
remaining activity at 0.1 µM (ADCK3): 100%
remaining activity at 0.1 µM (TRKA): 81%
remaining activity at 0.1 µM (JNK2): 92%
remaining activity at 0.1 µM (RIPK2): 100%
remaining activity at 0.1 µM (GCN2(Kin.Dom.2,S808G)): 97%
remaining activity at 0.1 µM (RIPK1): 91%
remaining activity at 0.1 µM (BMPR2): 89%
remaining activity at 0.1 µM (IKK-alpha): 99%
remaining activity at 0.1 µM (ERK3): 100%
remaining activity at 0.1 µM (PLK3): 92%
remaining activity at 0.1 µM (MAST1): 97%
remaining activity at 0.1 µM (KIT(V559D,T670I)): 100%
